We go through 1 compound from patent publication US20160058712A1, “3-HYDROXYPTEROSTILBENE AND THERAPEUTIC APPLICATIONS THEREOF” (priority 2014, published 2016).

Data set [1] deals with COLO 205 cells. Briefly: Autophagy (acidic vesicular organelles) by acridine orange staining. The note with it: 24 h. The class given is cell-based, human. As to the method:
Autophagy induction in COLO 205 cells treated with 3-HPT and pterostilbene was detected by Acridine Orange (AO) staining. After 24 h treatment, COLO 205 cells were washed with phosphate buffered saline (PBS), suspended in PBS and stained with 1 μg/mL AO of 20 min. Photographs were obtained with a fluorescence microscope (Axioscop, Carl Zeiss, Thomwood, N.Y.) equipped with a mercury 100 W lamp, 490 nm Bandpass blue excitation filters, a 500 nm dichroic mirror and a 515 nm long pass barrier filter. For quantification of AVOs by flow cytometry, cells were treated as described under EXAMPLE II and stained with AO for 15 min and were analyzed by FACScan laser flow cytometer and CellQuest software.

Data set [2] has as its system COLO 205 xenograft tumors. The data set can be described thus: COLO 205 xenograft model. The class given is in vivo. As to the method: Male Balb/c nude mice at 3-4 weeks old (weighing 16-18 g) were obtained from the BioLASCO Experimental Animal Center (BioLASCO, Taipei, Taiwan). All animals were maintained in pathogen free sterile isolators and in a controlled atmosphere (25±1° C. at 50% relative humidity) and with a 12 h light-12 h dark cycle according to institutional guidelines. Animals were fed with standard AIN76 diet and all food, water, caging, and bedding were sterilized prior to use. Animals had free access to food and water at all times. Food cups were replenished with fresh diet every day. All animal experimental protocol used in this study was approved by Institutional Animal Care and Use Committee of the National Kaohsiung Marine University (IACUC, NKMU, #099AAA902, Validity dates: Jan. 1, 2009 Jul. 31, 2012). After 1 week of acclimation, colon cancer COLO 205 cells (5×10^6) in 0.2 mL PBS were injected subcutaneously between the scapulae of each nude mouse. After transplantation, tumor size was measured using calipers, and the tumor volume was estimated according to the following formula: tumor volume […]=L×W2/2, where L is the length and W is the width. Once tumors reached a mean size of […], mice were randomly divided into three groups (6 animals/group). Mice were i.p. injection with pterostilbene or 3-hydroxypterostilbene (10 mg/kg/d, respectively) for 15 days, while control animals were received injection of corn oil. The diet intake and body weight of each animal was monitored every day. The tumor volume was assessed and recorded every 5 days using caliper measurements. After 15 days, the mice were sacrificed by […] and the liver, kidneys, spleen and solid tumors were excised immediately and weighed. Average tumor volume and tumor weight of each group were represent the mean±standard deviation (SD). Average tumor volumes were recorded during the treatment and average tumor weights were measured at the end of experiment. Six samples were analyzed in each group, and values represent the mean±SD. *P<0.05 and **P<0.01, compared with control group. #P<0.05, compared with pterostilbene treated group. The tumor tissues were cut into several portion for western blot analysis or stored at −80° C. […] Furthermore, in mice receiving these treatment regimens, no gross signs of toxicity were observed during visible inspections of general appearance and microscopic examinations of individual organs. • 2.

The test system of data set [3] is PC-3 cells. Briefly: Flow cytometry analysis of subG1 cell population in PC-3 cells. The class given is cell-based, human. Conditions: PC-3, 0-20 μM, 48 hr. As to the method:
PC-3 cells were cultured in serum-free RPMI containing 0, 2.5, 5, 10, or 20 μM of 3-HPT for 48 hr followed by flow cytometric analysis.
A general note: In flow cytometry, cells or beads pass a laser one at a time.

Turning to `COc1cc(/C=C/c2ccc(O)c(O)c2)cc(OC)c1` [3-hydroxypterostilbene, 3,4-dihydroxy-3′,5′-dimethoxy-trans-stilbene], the “appearance of AVO (fluorescence microscopy)” value in data set [1] (COLO 205, 50 μM) is listed as “marked appearance of AVO than pterostilbene”. In addition, the “red fluorescence of cells with AVOs (flow cytometry)” value in data set [1] (COLO 205, 25 and 50 μM) is on record as “significantly increased after treatment with 3-HPT in a dose dependent manner”. Moreover, in data set [2] (10 mg/kg, Western blot, compared to the pterostilbene group), the “protein levels of COX2, MMP9, VEGF, cyclin D1, and procaspase 3 in tumors” value is listed as “markedly decreased”. The “side effects or toxicity (body and organ weights, gross signs)” value in data set [2] (10 mg/kg/d i.p., 15 days, nude mice) was “no noticeable side effects or toxicity”. For the same compound, in data set [2] (10 mg/kg/d i.p., after 15 days), the tumor volume result is “significantly inhibited in comparison with the pterostilbene treated mice”. For the same compound, in data set [2] (10 mg/kg/d i.p., end of experiment), the tumor weight entry is on record as “strongly inhibited”. Also, in data set [3], the “percentage of apoptotic cells (subG1)” value was “increasing percentage of apoptotic cells over increasing concentrations”.
